{
  "source": "paper PMC5983563",
  "about": "“Defining ICR-Mo, an intrinsic colistin resistance determinant from Moraxella osloensis” (PLoS Genetics, 2018)",
  "key": {"[1]": {"target": "T1, EptA (Neisseria gonorrhoeae, UniProt B4RMY8)", "T1 construct": "gene NGK_1498; full-length membrane protein, purified in DDM", "T1 sequence (B4RMY8 entry or part of it)": "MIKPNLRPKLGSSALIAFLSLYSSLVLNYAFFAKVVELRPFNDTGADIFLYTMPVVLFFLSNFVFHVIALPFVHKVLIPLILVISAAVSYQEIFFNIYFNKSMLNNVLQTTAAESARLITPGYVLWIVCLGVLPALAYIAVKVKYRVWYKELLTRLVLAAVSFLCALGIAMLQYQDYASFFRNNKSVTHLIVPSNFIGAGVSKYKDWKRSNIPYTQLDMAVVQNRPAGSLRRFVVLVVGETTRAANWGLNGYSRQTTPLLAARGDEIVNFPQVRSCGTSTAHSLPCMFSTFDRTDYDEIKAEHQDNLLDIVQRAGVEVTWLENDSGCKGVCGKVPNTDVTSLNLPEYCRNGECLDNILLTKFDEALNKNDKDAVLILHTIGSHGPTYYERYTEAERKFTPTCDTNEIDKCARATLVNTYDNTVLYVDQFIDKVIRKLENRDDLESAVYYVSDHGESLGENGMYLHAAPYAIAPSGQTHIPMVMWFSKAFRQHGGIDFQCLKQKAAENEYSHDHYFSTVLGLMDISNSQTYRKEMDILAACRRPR", "experiment": "TLC of fluorescent lipid", "format": "biochemical", "settings": "pH 7.5, 25°C, ~24 h, 0.2 mM substrate, 40 μM enzyme, 0.03% DDM"}, "[2]": {"target": "T2, ICR-Mo (AXE82_07515) (Faucicola osloensis, UniProt A0A378QCY4)", "T2 construct": "gene eptA; full-length synthetic gene in pET21a, membrane protein, Ni-NTA purified in DDM, ~60 kDa", "T2 sequence (A0A378QCY4 entry or part of it)": "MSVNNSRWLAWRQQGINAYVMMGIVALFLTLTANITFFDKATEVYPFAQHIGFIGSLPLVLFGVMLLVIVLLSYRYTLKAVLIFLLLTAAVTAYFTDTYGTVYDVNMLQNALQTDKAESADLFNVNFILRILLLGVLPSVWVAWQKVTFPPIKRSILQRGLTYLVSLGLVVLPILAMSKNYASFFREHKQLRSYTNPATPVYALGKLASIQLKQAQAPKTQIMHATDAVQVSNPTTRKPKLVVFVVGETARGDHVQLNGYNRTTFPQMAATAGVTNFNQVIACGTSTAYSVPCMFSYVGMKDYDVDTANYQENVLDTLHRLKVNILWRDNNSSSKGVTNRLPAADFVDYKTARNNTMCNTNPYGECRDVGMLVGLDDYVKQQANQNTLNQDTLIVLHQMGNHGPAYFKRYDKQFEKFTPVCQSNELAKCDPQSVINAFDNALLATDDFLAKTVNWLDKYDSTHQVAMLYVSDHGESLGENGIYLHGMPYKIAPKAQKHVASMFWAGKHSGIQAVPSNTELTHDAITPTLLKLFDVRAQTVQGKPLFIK", "experiment": "TLC of fluorescent lipid, LC/MS", "format": "biochemical", "settings": "pH 7.5, 25°C, ~24 h, 0.2 mM substrate, 40 μM enzyme, 0.03% DDM"}},
  "data": [
    {"molecule": "CCCCCCCCCCCCCCCC(=O)OC[C@H](COP(=O)(O)OCCN)OC(=O)CCCCCCCCCCCNc1ccc([N+](=O)[O-])c2nonc12", "note": "[NBD-glycerol-3-PEA, 1-acyl-2-{12-[(7-nitro-2-1,3-benzoxadiazol-4-yl)amino]dodecanoyl}-sn-glycero-3-phosphoethanolamine]", "values": [
      {"measurement": "TLC of fluorescent lipid", "setting": "[1]", "value": "Minus denotes no addition of the enzyme of EptA/MCR-1/MCR-2/ICR-Mo"},
      {"measurement": "TLC of fluorescent lipid, LC/MS", "setting": "[2]", "value": "ICR-Mo displays an enzymatic activity of removing the PEA moiety from the lipid substrate"}
    ]}
  ]
}
